Source: ChEMBL document CHEMBL1201862, “PubChem BioAssay data set” (2004)
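Five concentrations, 48 hours, 96-well plates. At the GI50, growth is halved.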 Activity calls are given as the source filed them. No stated cut-off is given here; in the data, active = GI50 up to about 1.1 µM and inactive = higher. Where a SMILES comes first, the peptide text is derived from it.

Assays:
Assay in all cases: inhibition of tumour cell growth, NCI panel, 48 h
OVCAR-3 = tested on: OVCAR-3
ACHN = tested on: ACHN
SF-539 = tested on: SF-539
RPMI-8226 = tested on: RPMI-8226
A549 = tested on: A549
HOP-92 = tested on: HOP-92
SNB-75 = tested on: SNB-75
786-0 = tested on: 786-0
COLO 205 = tested on: COLO 205
SK-OV-3 = tested on: SK-OV-3
HL-60 = tested on: HL-60
SK-MEL-5 = tested on: SK-MEL-5
IGROV-1 = tested on: IGROV-1
CAKI-1 = tested on: CAKI-1
NCI-H23 = tested on: NCI-H23
NCI-H522 = tested on: NCI-H522
HCT-116 = tested on: HCT-116
NCI-H226 = tested on: NCI-H226

Compound	GI50 (OVCAR-3)	GI50 (ACHN)	GI50 (SF-539)	GI50 (RPMI-8226)	GI50 (A549)	GI50 (HOP-92)	GI50 (SNB-75)	GI50 (786-0)	GI50 (COLO 205)	GI50 (SK-OV-3)	GI50 (HL-60)	GI50 (SK-MEL-5)	GI50 (IGROV-1)	GI50 (CAKI-1)	GI50 (NCI-H23)	GI50 (NCI-H522)	GI50 (HCT-116)	GI50 (NCI-H226)
CCC1=C(C)/C(=C/c2[nH]c(CBr)c(CC)c2C)N=C1CBr	16.1 µM (inactive)	> 10 µM (inactive)	18.7 µM (inactive)	5.66 µM (inactive)	18.4 µM (inactive)	7.46 µM (inactive)	29.6 µM (inactive)	17 µM (inactive)	11.3 µM (inactive)	19 µM (inactive)	4.59 µM (inactive)	16.8 µM (inactive)	18.5 µM (inactive)	10.2 µM (inactive)	14.6 µM (inactive)	2.81 µM (inactive)	–	–
CCS(=O)(=O)Nc1ccc(Nc2c3ccccc3nc3ccccc23)c(OC)c1	2.03 µM (inactive)	–	0.295 µM (active)	0.28 µM (active)	0.0205 µM (active)	0.697 µM (active)	0.284 µM (active)	–	2.22 µM (inactive)	0.203 µM (active)	0.0168 µM (active)	0.796 µM (active)	7.94 µM (inactive)	0.0962 µM (active)	0.203 µM (active)	1.2 µM (inactive)	1.19 µM (inactive)	0.331 µM (active)
COc1ccc(C(N)=O)c(OC)c1OCc1ccccc1	> 100 µM (inactive)	> 100 µM (inactive)	> 100 µM (inactive)	> 100 µM (inactive)	> 100 µM (inactive)	> 100 µM (inactive)	> 100 µM (inactive)	> 100 µM (inactive)	> 100 µM (inactive)	> 100 µM (inactive)	> 100 µM (inactive)	> 100 µM (inactive)	> 100 µM (inactive)	–	9.51 µM (inactive)	12.4 µM (inactive)	> 100 µM (inactive)	> 100 µM (inactive)
N#CNCC(COCc1ccccc1)c1ccccc1 (configuration not stated)	–	> 100 µM (inactive)	> 100 µM (inactive)	> 100 µM (inactive)	> 100 µM (inactive)	> 100 µM (inactive)	41.9 µM (inactive)	> 100 µM (inactive)	> 100 µM (inactive)	> 100 µM (inactive)	61.4 µM (inactive)	49.2 µM (inactive)	> 100 µM (inactive)	–	> 100 µM (inactive)	> 100 µM (inactive)	> 100 µM (inactive)	98.4 µM (inactive)
CC1NC(=O)CNC(=O)CNC(=O)C(Cc2ccc(O)cc2)NC(=O)C(C(C)C)NC(=O)C(C)NC1=O (configuration not stated) (cyclo(GGAAVY); configuration not given here)	> 100 µM (inactive)	–	> 100 µM (inactive)	> 100 µM (inactive)	> 100 µM (inactive)	50.8 µM (inactive)	> 100 µM (inactive)	–	> 100 µM (inactive)	> 100 µM (inactive)	> 100 µM (inactive)	> 100 µM (inactive)	> 100 µM (inactive)	> 100 µM (inactive)	> 100 µM (inactive)	–	> 100 µM (inactive)	> 100 µM (inactive)
O=C(CC1(O)C(=O)Nc2c(Cl)cccc21)c1ccccc1 (configuration not stated)	> 100 µM (inactive)	> 100 µM (inactive)	–	49.3 µM (inactive)	> 100 µM (inactive)	> 100 µM (inactive)	85.9 µM (inactive)	> 100 µM (inactive)	> 100 µM (inactive)	> 100 µM (inactive)	> 100 µM (inactive)	> 100 µM (inactive)	–	> 100 µM (inactive)	> 100 µM (inactive)	> 100 µM (inactive)	–	> 100 µM (inactive)
CCOc1ccc(OCC)c([P+](c2ccccc2)(c2ccccc2)c2ccccc2)c1	0.162 µM (active)	1.65 µM (inactive)	0.685 µM (active)	0.286 µM (active)	0.443 µM (active)	0.182 µM (active)	1.09 µM (active)	0.879 µM (active)	0.299 µM (active)	–	0.114 µM (active)	0.267 µM (active)	0.356 µM (active)	1.29 µM (inactive)	0.254 µM (active)	–	0.27 µM (active)	0.406 µM (active)
Cc1nc2c(=O)n(C)c(=O)nc-2n(-c2ccc(Cl)cc2)c1C	> 100 µM (inactive)	58.6 µM (inactive)	> 100 µM (inactive)	–	> 100 µM (inactive)	> 100 µM (inactive)	> 100 µM (inactive)	> 100 µM (inactive)	> 100 µM (inactive)	> 100 µM (inactive)	45.3 µM (inactive)	79.1 µM (inactive)	> 100 µM (inactive)	43.1 µM (inactive)	> 100 µM (inactive)	> 100 µM (inactive)	–	> 100 µM (inactive)
C[Si](C)(C)[C@@]1([Se]c2ccccc2)CC[C@@H]1C(=O)c1ccccc1	84.1 µM (inactive)	54 µM (inactive)	62.7 µM (inactive)	20.1 µM (inactive)	56.2 µM (inactive)	–	61 µM (inactive)	> 100 µM (inactive)	> 100 µM (inactive)	> 100 µM (inactive)	–	18.5 µM (inactive)	> 100 µM (inactive)	72.1 µM (inactive)	33.7 µM (inactive)	23.7 µM (inactive)	33.6 µM (inactive)	40.2 µM (inactive)
Cc1cc(/N=N/c2ccc(/N=N/c3c(O)c(S(=O)(=O)O)cc4cc(S(=O)(=O)O)ccc34)cc2C)ccc1/N=N/c1ccc2cc(S(=O)(=O)O)cc(S(=O)(=O)O)c2c1	> 100 µM (inactive)	–	> 100 µM (inactive)	> 100 µM (inactive)	> 100 µM (inactive)	> 68.5 µM (inactive)	> 100 µM (inactive)	–	> 100 µM (inactive)	> 47 µM (inactive)	> 100 µM (inactive)	> 100 µM (inactive)	> 100 µM (inactive)	–	> 100 µM (inactive)	> 100 µM (inactive)	> 100 µM (inactive)	> 50.2 µM (inactive)
CN(C)c1cccc(OC(=O)NCCCl)c1	> 100 µM (inactive)	–	> 100 µM (inactive)	–	> 100 µM (inactive)	65.3 µM (inactive)	63.8 µM (inactive)	–	> 100 µM (inactive)	> 100 µM (inactive)	> 100 µM (inactive)	> 100 µM (inactive)	> 100 µM (inactive)	> 100 µM (inactive)	> 100 µM (inactive)	> 100 µM (inactive)	> 100 µM (inactive)	> 100 µM (inactive)
CCOC(=O)C(Sc1ccccc1)c1c(OC)cc(=O)oc1/C=[N+](/[O-])c1ccc(N(C)C)cc1 (configuration not stated)	13.2 µM (inactive)	> 10 µM (inactive)	24.4 µM (inactive)	19.6 µM (inactive)	28.4 µM (inactive)	–	31.3 µM (inactive)	19.7 µM (inactive)	22.4 µM (inactive)	75.7 µM (inactive)	–	20 µM (inactive)	42.4 µM (inactive)	14.9 µM (inactive)	27.5 µM (inactive)	–	–	–
O=C(Nc1ccccc1-c1nn(CN2CCNCC2)c(=S)n(CN2CCNCC2)c1=O)C(F)(F)F	20.7 µM (inactive)	25.3 µM (inactive)	18.4 µM (inactive)	–	22.3 µM (inactive)	22 µM (inactive)	22.6 µM (inactive)	18.7 µM (inactive)	17.1 µM (inactive)	20 µM (inactive)	16.4 µM (inactive)	17.3 µM (inactive)	22.3 µM (inactive)	23.9 µM (inactive)	17.9 µM (inactive)	–	17.8 µM (inactive)	17.2 µM (inactive)
